The values below are quoted from earlier work in patent US20250231185A1, “Coronavirus T Cell Epitopes, Megapools and Uses Thereof” (La Jolla Institute for Immunology, priority 2021, published 2025).

The test system of the first series is CD8+ T cells. The conditions noted are these: CD8R (D) megapool epitopes; dominant = recognized by 3 or more donors/different studies; cited from earlier work.
Take 1806 (VYFLQSINF) [compound 1806]: the Dominant entry is given as “Yes (more dominant epitopes are defined by being recognized by 3 or more donors/different studies)”.

As for 1677 (AVILRGHLR) [compound 1677], the Dominant entry is listed as “Yes (more dominant epitopes are defined by being recognized by 3 or more donors/different studies)”.

For the substance 1724 (DTDFVNEFY) [compound 1724], the Dominant result is “Yes (more dominant epitopes are defined by being recognized by 3 or more donors/different studies)”.

As to 1803 (IVGVALLAVF) [compound 1803], the Dominant entry was “Yes (more dominant epitopes are defined by being recognized by 3 or more donors/different studies)”.

On to 1721 (VVDKYFDCY) [compound 1721], for which the Dominant entry is on record as “Yes (more dominant epitopes are defined by being recognized by 3 or more donors/different studies)”.

With 1748 (MMISAGFSL) [compound 1748], the Dominant entry is recorded as “Yes (more dominant epitopes are defined by being recognized by 3 or more donors/different studies)”.

Take 1666 (SLVKPSFYV) [compound 1666]: the Dominant result is recorded as “Yes (more dominant epitopes are defined by being recognized by 3 or more donors/different studies)”.

1693 (VLQLPQGTTL) [compound 1693]: the Dominant result is recorded as “Yes (more dominant epitopes are defined by being recognized by 3 or more donors/different studies)”.

For 1790 (SEFSSLPSY) [compound 1790], the Dominant entry is reported as “Yes (more dominant epitopes are defined by being recognized by 3 or more donors/different studies)”.

Staying with this series, now noted: CD8RE megapool peptides (non-spike SARS-CoV-2 antigens); dominant epitope Yes/No; cited from earlier work.
As for 2923 (LSPRWYFYYL) [compound 2923], the Dominant entry is listed as “Yes (more dominant epitopes are defined by being recognized by 3 or more donors/different studies)”.

For 3015 (FLNGSCGSV) [compound 3015], the Dominant entry is listed as “Yes (more dominant epitopes are defined by being recognized by 3 or more donors/different studies)”.

On to 2906 (NRFLYIIKL) [compound 2906], for which the Dominant entry is listed as “Yes (more dominant epitopes are defined by being recognized by 3 or more donors/different studies)”.

As to 3053 (LEYHDVRVVL) [compound 3053], the Dominant result is “Yes (more dominant epitopes are defined by being recognized by 3 or more donors/different studies)”.

2971 (KLNVGDYFV) [compound 2971]: the Dominant entry is reported as “Yes (more dominant epitopes are defined by being recognized by 3 or more donors/different studies)”.

In the case of 2945 (FSKQLQQSM) [compound 2945], the Dominant result was “Yes (more dominant epitopes are defined by being recognized by 3 or more donors/different studies)”.

Consider 2957 (RLYYDSMSY) [compound 2957], for which the Dominant entry was “Yes (more dominant epitopes are defined by being recognized by 3 or more donors/different studies)”.

On to 3040 (YLYALVYFL) [compound 3040], for which the Dominant result was “Yes (more dominant epitopes are defined by being recognized by 3 or more donors/different studies)”.

The same series, now with this note: HLA-A*01:01 epitopes overlapping TTDPSFLGRY; Saini et al.; cited from earlier work.
With HTTDPSFLGRY [nsp3 818-828], the dominance as reported result is on record as “particularly dominant”.

The same series, now with this note: Habel et al., 14 peptides screened; HLA-A*02:01; cited from earlier work.
Regarding VLNDILSRL [SEQ ID NO: 1508], the IFN-f response result is “less prominently recognized”.

On to “ORF1ab 3183-3191: SARS-CoV-2 ORF1ab 3183-3191 CD8 epitope among 14 peptides screened in the Habel et al. study (FLLNKEMYL; CD8 epitope peptide; UniProt P0DTD1 3183-3191, looked up, fragment) [reference compound]”, for which the IFN-f response entry was “less prominently recognized”.

Still in this series, the particulars now being: SARS-CoV-2-derived CD8 epitopes; dominant = recognized by 3 or more donors/different studies; cited from earlier work.
Turning to 670 (YLATALLTL) [compound 670], the Dominant entry was “Yes (more dominant epitopes are defined by being recognized by 3 or more donors/different studies)”.

Take 521 (QQQQGQTVTK) [compound 521]: the Dominant entry is recorded as “Yes (more dominant epitopes are defined by being recognized by 3 or more donors/different studies)”.

With 519 (LLLLDRLNQL) [compound 519], the Dominant result is reported as “Yes (more dominant epitopes are defined by being recognized by 3 or more donors/different studies)”.

The series is the same for the next values; noted with them: SARS-CoV-2 Ag S; T cell type recognizing the epitope; cited from earlier work.
For the substance 1306 (RLFRKSNLK) [compound 1306], the Restriction entry is “CD8”.

Turning to 1394 (IPFAMQMAY) [compound 1394], the Restriction entry was “CD8”.

For 1400 (LSSTASALGK) [compound 1400], the Restriction entry was “CD8”.

1393 (QIPFAMQMAY) [compound 1393]: the Restriction result was “CD8”.

1403 (SVLNDILSR) [compound 1403]: the Restriction entry is “CD8”.

For 1358 (IAIPTNFTI) [compound 1358], the Restriction result is listed as “CD8”.

On to 1323 (ELLHAPATV) [compound 1323], for which the Restriction result is listed as “CD8”.

As for 1357 (NSIAIPTNF) [compound 1357], the Restriction entry is “CD8”.

For the substance 1432 (HVTYVPAQEK) [compound 1432], the Restriction entry was “CD8”.

1399 (IANQFNSAI) [compound 1399]: the Restriction result is “CD8”.

In the case of 1305 (YNYLYRLFR) [compound 1305], the Restriction entry was “CD8”.

Take 1339 (RVYSTGSNVF) [compound 1339]: the Restriction result was “CD8”.

As for 1370 (QEVFAQVKQIY) [compound 1370], the Restriction entry is recorded as “CD8”.

Still in this series, the particulars now being: T cell subset (CD4 or CD8) recognizing the SARS-CoV-2-derived epitope; cited from earlier work.
Regarding 589 (ELDERIDKV) [compound 589], the Restriction result is listed as “CD8”.

As to 647 (HLDGEVITF) [compound 647], the Restriction result is on record as “CD8”.

On to 684 (DVFYKENSY) [compound 684], for which the Restriction result is “CD8”.

561 (VMVELVAEL) [compound 561]: the Restriction result is “CD8”.

As for 581 (APKEIIFL) [compound 581], the Restriction result is reported as “CD8”.

Take 577 (YEKLKPVL) [compound 577]: the Restriction entry is on record as “CD8”.

Consider 692 (YYKKDNSYF) [compound 692], for which the Restriction result is “CD8”.

Turning to 694 (ASFDNFKFV) [compound 694], the Restriction result was “CD8”.

For 585 (DTVIEVQGYK) [compound 585], the Restriction result is recorded as “CD8”.

On to 618 (KLVSSFLEM) [compound 618], for which the Restriction result was “CD8”.

Take 637 (AIVSTIQRK) [compound 637]: the Restriction entry was “CD8”.

As for 586 (QGYKSVNITF) [compound 586], the Restriction result is given as “CD8”.

Turning to 563 (HVGEIPVAY) [compound 563], the Restriction result was “CD8”.

On to 670 (YLATALLTL) [compound 670], for which the Restriction entry is recorded as “CD8”.

As to 666 (MSALNHTKKW) [compound 666], the Restriction entry is listed as “CD8”.

As for 521 (QQQQGQTVTK) [compound 521], the Restriction result is reported as “CD8”.

Regarding 519 (LLLLDRLNQL) [compound 519], the Restriction entry is “CD8”.

640 (VSSPDAVTAY) [compound 640]: the Restriction entry is on record as “CD8”.

Staying with this series, now noted: T cell type (CD4 or CD8) recognizing the SARS-CoV-2 epitope; cited from earlier work.
Take 1045 (ILGLPTQTV) [compound 1045]: the Restriction entry was “CD8”.

Regarding 1005 (YLPYPDPSRI) [compound 1005], the Restriction entry was “CD8”.

Turning to 1073 (TTLPVNVAF) [compound 1073], the Restriction result is “CD8”.

Turning to 1015 (SRYWEPEF) [compound 1015], the Restriction result was “CD8”.

Turning to 1018 (TPHTVLQAV) [compound 1018], the Restriction entry is on record as “CD8”.

As to 1083 (SVVSKVVKV) [compound 1083], the Restriction result is given as “CD8”.

Consider 936 (VRQALLKTV) [compound 936], for which the Restriction entry is on record as “CD8”.

Take 934 (VENPDILRV) [compound 934]: the Restriction result is “CD8”.
